What was measured:
[1] = system: SA3-6A/B (DNA, aptamer) TGCGGAGGAAGGTTCGACCATCGTGCGGGTAGGTAGACC/GAACCTGGGGGAGTAGGTCTACCTACCCGCACGATGGTC; assay: UV melting, first-peak height; conditions: 150 mM NaCl, 5 mM MgCl2; 10 mM HEPES pH 7.4; 100 µM guanosine negative control; signal close to that of 5 µM adenosine
[2] = system: SA3-6A/B (DNA, aptamer) TGCGGAGGAAGGTTCGACCATCGTGCGGGTAGGTAGACC/GAACCTGGGGGAGTAGGTCTACCTACCCGCACGATGGTC; assay: UV melting at 260 nm; conditions: 150 mM NaCl, 5 mM MgCl2; 10 mM HEPES pH 7.4; 100 µM adenosine; 0.9 µM strands; first (aptachain) peak
[3] = system: SA5-5A/B (DNA, aptamer) CCTGCGGAGGAAGGTTGACCATCGTGCGGGTAGGTAGA/AACCTGGGGGAGTAGGTCTACCTACCCGCACGATGGTC; assay: UV melting at 260 nm; conditions: 150 mM NaCl, 5 mM MgCl2; 10 mM HEPES pH 7.4; 100 µM adenosine; 0.9 µM strands; first (aptachain) peak
[4] = system: SA5-6A/B (DNA, aptamer) CCTGCGGAGGAAGGTTCGACCATCGTGCGGGTAGGTAGA/GAACCTGGGGGAGTAGGTCTACCTACCCGCACGATGGTC; assay: UV melting at 260 nm; conditions: 150 mM NaCl, 5 mM MgCl2; 10 mM HEPES pH 7.4; 100 µM adenosine; 0.9 µM strands; first (aptachain) peak
[5] = system: SA5-8A/B (DNA, aptamer) CCTGCGGAGGAAGGTTCTCGACCATCGTGCGGGTAGGTAGA/GAGAACCTGGGGGAGTAGGTCTACCTACCCGCACGATGGTC; assay: UV melting at 260 nm; conditions: 150 mM NaCl, 5 mM MgCl2; 10 mM HEPES pH 7.4; 100 µM adenosine; 0.9 µM strands; first (aptachain) peak
[6] = system: Apta6 (DNA, aptamer) GAACCTGGGGGAGTATTGCGGAGGAAGGTTC; assay: UV melting at 260 nm; conditions: 150 mM NaCl, 5 mM MgCl2; 10 mM HEPES pH 7.4; 100 µM adenosine; 0.9 µM strand; single hairpin peak
[7] = system: SA3-5A/B (DNA, aptamer) TGCGGAGGAAGGTTGAGGACCATCGTGCGGGTAGGTAGACC/GAGAACCTGGGGGAGTAGGTCTACCTACCCGCACGATGGTC; assay: UV melting at 260 nm; conditions: 150 mM NaCl, 5 mM MgCl2; 10 mM HEPES pH 7.4; 100 µM adenosine; peak at 28 °C only with adenosine, absent without
[8] = system: SA3-6A/B (DNA, aptamer) TGCGGAGGAAGGTTCGACCATCGTGCGGGTAGGTAGACC/GAACCTGGGGGAGTAGGTCTACCTACCCGCACGATGGTC; assay: UV melting first-peak height, Langmuir fit; conditions: 150 mM NaCl, 5 mM MgCl2; 10 mM HEPES pH 7.4; 0.9 µM strands; peak normalized to dimer peak; apparent; per site

binding [1] | ΔTm [2] [°C] | ΔTm [3] [°C] | ΔTm [4] [°C] | ΔTm [5] [°C] | ΔTm [6] [°C] | binding [7] | KD [8] [µM] | SMILES
weak | – | – | – | – | – | – | – | Nc1nc2c(ncn2[C@@H]2O[C@H](CO)[C@@H](O)[C@H]2O)c(=O)[nH]1
– | 5.5 | 2.5 | 2.5 | 2 | < 1 | yes | 19 ± 2 | Nc1ncnc2c1ncn2[C@@H]1O[C@H](CO)[C@@H](O)[C@H]1O

— article PMC8068264 (2021)
